Data: US20210106547A1, “Managing Cardiovascular Conditions Associated with Kidney Disease” (Emory University, priority 2019, published 2021)
Entries after “also recorded” stand apart in the source; their conditions may differ.

How the values were obtained:
[1] = tested on: C57BL/6 wild type mice; assay: Heart size and heart weight at sacrifice (cardiac hypertrophy); assay type: in vivo, mouse
Protocol: White bar is vehicle and black bar is DMTU treatment.
(§1) Experiment of C57BL/6 wild type mice. Mice underwent 5/6 nephrectomy surgery. Mice were fed 14% protein diet (0 weeks to 2 weeks), 23% protein diet (2 weeks to 6 weeks), and 40% protein diet (6 weeks to 8 weeks). Mice drank 1% NaCl water one week to six weeks after second surgery, and dimethylthiourea (DMTU; UT-A inhibitor) was administered by osmotic mini pump.
(§2) Since an increase in UT-A is associated with an increase in fibrosis proteins in vitro and in vivo, experiments were performed to determine whether inhibition of UT-A could prevent fibrosis in the heart of CKD mice. Mice were randomly divided into four cohorts: sham+vehicle, sham+DMTU, 5/6Nx+vehicle, and 5/6Nx+DMTU. Mini-pumps were used for DMTU administration (100 mg/kgBW/day). The phenotypic characteristics of mice were determined 8 weeks after completing the 5/6Nx (Table 1).
Inhibition of UT-A suppressed CKD-induced increases in SBP in 5/6Nx mice (5/6Nx+DMTU: 119±3 mmHg vs 5/6Nx+vehicle: 130±2 mmHg, P<0.05) (FIG. 3A). […] DMTU suppressed the CKD-induced increase in heart weight (5/6Nx+DMTU: 3.74±0.12 mg/g vs 5/6Nx+vehicle: 4.50±0.09 mg/g, P<0.001) (FIG. 3D). Since the BW could be altered by either edema (in CKD) or dehydration (by DMTU), dry brain weight was also used to normalize heart weight.

[2] = tested on: C57BL/6 wild type mice; assay: Phenotypic characteristics of sham and 5/6Nx mice 8 weeks after 5/6 nephrectomy, DMTU by osmotic mini pump; assay type: in vivo, mouse; details: for 24 hr intake volume/BW / 24 hr urine osmolality / 24 hr urine volume/BW / BUN / Plasma osmolality / Urine urea / Volume in-out balance/BW: 8 weeks
Protocol: as §1, §2

[3] = tested on: Rats; details: cited from earlier work
[4] = target: T1, UT-B (Homo sapiens, UniProt Q13336); details: cited from earlier work
T1 sequence (Q13336 1-389): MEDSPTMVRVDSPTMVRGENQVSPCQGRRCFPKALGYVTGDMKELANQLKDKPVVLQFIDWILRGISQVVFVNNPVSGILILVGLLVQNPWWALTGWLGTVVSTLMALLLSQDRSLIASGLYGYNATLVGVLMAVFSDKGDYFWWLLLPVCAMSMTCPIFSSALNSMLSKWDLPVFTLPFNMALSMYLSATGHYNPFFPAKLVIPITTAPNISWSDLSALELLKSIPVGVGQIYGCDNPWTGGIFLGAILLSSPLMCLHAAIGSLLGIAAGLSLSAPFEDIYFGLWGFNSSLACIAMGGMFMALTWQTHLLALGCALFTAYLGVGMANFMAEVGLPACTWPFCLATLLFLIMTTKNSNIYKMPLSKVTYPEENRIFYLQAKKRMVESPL

[5] = tested on: C57BL/6 wild type mice; assay: Masson's Trichrome staining of mouse heart tissues, fibrosis area; assay type: in vivo; details: 5/6Nx + DMTU, 5/6Nx+vehicle 1.04±0.15
Protocol: Pictures were observed by ×200 magnification. Scale bar is 100 μm. Dark color indicated fibrosis in Masson's staining.
as §1, §2

[6] = tested on: C57BL/6 wild type mice; assay: Cardiac echocardiographic analysis of mice after 5/6 nephrectomy and DMTU treatment; assay type: in vivo, mouse; details: for LVEDV: LV end-diastolic volume; for LVESD: LV end-systolic dimension; for LVESV: LV end-systolic volume; for FS: fractional shortening; for IVSd / IVSs: intraventricular septum; for PWd / PWs: posterior wall thickness; for LVMI: ratio of LVM to BW
Protocol: as §1, §2
Both intraventricular septum (IVS) and posterior wall thicknesses (PW) were greatest in 5/6Nx+vehicle than all other three groups (Table 2).

[7] = tested on: C57BL/6 wild type mice; assay: Blood pressure by tail cuff method at 8 weeks after the second surgery; assay type: in vivo, mouse
Protocol: Systolic blood pressure at 8 weeks after the second surgery.
as §1, §2

[8] = tested on: C57BL/6 wild type mice; assay: Immunohistochemistry staining of heart for collagen type 1 and α-SMA; assay type: in vivo, mouse; details: 5/6Nx + DMTU compared with 5/6Nx + vehicle
Protocol: as §1, §2

[9] = target: T2, UT-A1 (Homo sapiens, UniProt Q15849); details: cited from earlier work
T2 sequence (Q15849 1-920): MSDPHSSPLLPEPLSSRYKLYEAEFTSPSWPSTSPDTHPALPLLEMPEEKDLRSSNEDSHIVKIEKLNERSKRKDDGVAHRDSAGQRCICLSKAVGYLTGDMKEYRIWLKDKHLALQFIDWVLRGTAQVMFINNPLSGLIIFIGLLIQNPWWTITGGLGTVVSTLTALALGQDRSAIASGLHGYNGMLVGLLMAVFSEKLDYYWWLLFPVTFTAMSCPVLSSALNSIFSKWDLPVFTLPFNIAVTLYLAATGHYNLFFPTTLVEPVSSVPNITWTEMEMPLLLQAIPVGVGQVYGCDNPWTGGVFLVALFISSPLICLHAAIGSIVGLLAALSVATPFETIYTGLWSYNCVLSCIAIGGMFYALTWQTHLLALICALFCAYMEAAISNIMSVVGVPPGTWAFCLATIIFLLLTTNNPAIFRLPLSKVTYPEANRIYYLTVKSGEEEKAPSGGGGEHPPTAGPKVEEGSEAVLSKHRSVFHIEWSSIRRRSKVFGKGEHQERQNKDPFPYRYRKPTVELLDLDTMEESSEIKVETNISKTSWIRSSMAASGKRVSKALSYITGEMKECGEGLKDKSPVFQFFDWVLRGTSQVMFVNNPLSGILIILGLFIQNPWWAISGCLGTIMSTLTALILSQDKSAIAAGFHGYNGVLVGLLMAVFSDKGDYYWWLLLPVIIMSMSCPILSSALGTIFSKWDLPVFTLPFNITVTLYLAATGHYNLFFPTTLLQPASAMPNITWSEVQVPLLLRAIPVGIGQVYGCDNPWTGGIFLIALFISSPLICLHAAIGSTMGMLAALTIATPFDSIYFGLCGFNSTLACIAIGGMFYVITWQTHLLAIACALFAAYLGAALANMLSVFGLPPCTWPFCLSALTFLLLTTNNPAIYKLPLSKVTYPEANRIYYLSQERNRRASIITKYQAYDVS

[10] = tested on: C57BL/6 wild type mice; assay: Quantitative mRNA expression in mouse hearts by real-time PCR; assay type: in vivo
Protocol: FIG. 4E show quantitative mRNA expression in mouse hearts performed by real-time PCR. Individual gene expression was calculated by ΔΔcq and standardized by housekeeping gene 18s.
Angiotensin converting enzyme (ACE) gene expression was calculated by ΔΔcq and standardized by housekeeping gene 18s.
as §1
Since an increase in UT-A is associated with an increase in fibrosis proteins in vitro and in vivo, experiments were performed to determine whether inhibition of UT-A could prevent fibrosis in the heart of CKD mice. […] The phenotypic characteristics of mice were determined 8 weeks after completing the 5/6Nx (Table 1).
In uremic cardiomyopathy, increased cardiac fibrosis and hypertrophy are associated with upregulation of the renin-angiotensin system (RAS). To identify whether the ability of UT-A to reduce cardiac fibrosis is related to the RAS, the mRNA expression of angiotensin converting enzyme (ACE) was measured in the heart of 4 groups of mice.

CNC(=S)NC [DMTU, N,N′-dimethylthiourea]
Ratio of heart weight to dry brain weight ([1]; 5/6Nx + DMTU, vs 5/6Nx+vehicle 1.34±0.09, P<0.01): 1.04 ± 0.04 mg/mg
Ratio of heart weight/body weight (BW) ([1]; 5/6Nx + DMTU, vs 5/6Nx+vehicle 4.50±0.09, P<0.001): 3.74 ± 0.12 mg/g
CKD-induced increase in heart size ([1]; 5/6Nx mice, at sacrifice): suppressed the CKD-induced increase in heart size
Volume in-out balance relative to 5/6Nx+vehicle ([2]; 5/6Nx + DMTU): the balance was less
24 hr intake volume/BW ([2]; 5/6Nx + DMTU): 0.265 ± 0.028 mL/g
24 hr urine osmolality ([2]; 5/6Nx + DMTU): 1206 ± 116 mOsmol/kg H2O
24 hr urine volume/BW ([2]; 5/6Nx + DMTU): 0.170 ± 0.013 mL/g
BUN ([2]; 5/6Nx + DMTU): 63.7 ± 4.6 mg/dL
Plasma osmolality ([2]; 5/6Nx + DMTU): 329 ± 3 mOsmol/kg H2O
Urine urea ([2]; 5/6Nx + DMTU): 926 ± 95 mmol/L
Volume in-out balance/BW ([2]; 5/6Nx + DMTU): 0.114 ± 0.014 mL/g
Increase of urine volume and decrease of urine osmolality ([2]; CKD mice): absent
BUN values with DMTU treatment vs. vehicle treatment ([2]; either sham or CKD mice): no significant difference
24 hr intake volume/BW ([2]; sham + DMTU): 0.129 ± 0.006 mL/g
24 hr urine osmolality ([2]; sham + DMTU): 2378 ± 133 mOsmol/kg H2O
24 hr urine volume/BW ([2]; sham + DMTU): 0.058 ± 0.010 mL/g
BUN ([2]; sham + DMTU): 31.3 ± 2.8 mg/dL
Plasma osmolality ([2]; sham + DMTU): 322 ± 1 mOsmol/kg H2O
Urine urea ([2]; sham + DMTU): 1555 ± 128 mmol/L
Volume in-out balance/BW ([2]; sham + DMTU): 0.081 ± 0.010 mL/g
Effect on urine osmolality ([2]; sham mice): decreased urine osmolality
Effect on urine volume ([2]; sham mice): increased urine volume
Diuresis compared with furosemide [3]: greater diuresis
Side effects like hyponatremia or hypokalemia [3]: did not show side effects
Inhibition of UT-B [4]: inhibits
Percentage of fibrosis area in heart [5]: 0.57±0.07%
CKD-induced increases of LVESD, LVEDV, LVESV and LVMI ([6]; 5/6Nx + DMTU): eliminated these increases
LVEDD ([6]; 5/6Nx + DMTU): 3.43 ± 0.06 mm
LVM ([6]; 5/6Nx + DMTU): 89 ± 3 mg
LVEDV ([6]; 5/6Nx + DMTU): 62.6 ± 0.3 µL
LVESD ([6]; 5/6Nx + DMTU): 2.77 ± 0.02 mm
LVESV ([6]; 5/6Nx + DMTU): 23.6 ± 0.3 µL
FS ([6]; 5/6Nx + DMTU): 30 ± 0.5 %
IVSd ([6]; 5/6Nx + DMTU): 0.49 ± 0.01 mm
IVSs ([6]; 5/6Nx + DMTU): 1.08 ± 0.00 mm
PWd ([6]; 5/6Nx + DMTU): 0.55 ± 0.01 mm
PWs ([6]; 5/6Nx + DMTU): 0.52 ± 0.01 mm
LVMI ([6]; 5/6Nx + DMTU): 3.44 ± 0.13 mg/g
Percentage of fractional shortening (FS), effect ([6]; CKD heart): restored FS to the normal range
Pericardial effusion ([6]; mice of the cohorts other than 5/6Nx+vehicle (incl. sham+DMTU, 5/6Nx+DMTU)): none of the mice
LVEDD ([6]; sham + DMTU): 3.80 ± 0.18 mm
LVM ([6]; sham + DMTU): 97 ± 7 mg
LVEDV ([6]; sham + DMTU): 57.3 ± 1.8 µL
LVESD ([6]; sham + DMTU): 2.45 ± 0.14 mm
LVESV ([6]; sham + DMTU): 21.8 ± 1.1 µL
FS ([6]; sham + DMTU): 33 ± 0.5%
IVSd ([6]; sham + DMTU): 0.44 ± 0.00 mm
IVSs ([6]; sham + DMTU): 1.05 ± 0.00 mm
PWd ([6]; sham + DMTU): 0.53 ± 0.00 mm
PWs ([6]; sham + DMTU): 0.52 ± 0.03 mm
LVMI ([6]; sham + DMTU): 3.73 ± 0.15 mg/g
SBP (systolic blood pressure) ([7]; 5/6Nx + DMTU, 8 weeks, vs 5/6Nx+vehicle 130±2, P<0.05): 119±3 mmHg
Effect on DBP (diastolic blood pressure) ([7]; sham or 5/6Nx mice): did not affect DBP
Collagen type I and α-smooth muscle actin (SMA) proteins in heart [8]: less
Inhibition of UT-A1 [9]: inhibits
mRNA expression of fibrosis related genes (collagen 1A1, collagen 4A1, fibronectin and α-SMA) in heart ([10]; 5/6Nx + DMTU compared with 5/6Nx + vehicle): less than 5/6Nx+vehicle mice
mRNA expression of angiotensin converting enzyme (ACE) in heart ([10]; sham and 5/6Nx groups, DMTU vs vehicle): significantly abolished ACE expression; also recorded: suppressed an increase in ACE mRNA expression
